Measurements published in patent US10759783B2, “Biaryl inhibitors of Bruton'S tyrosine kinase” (BIOGEN MA INC., priority 2013, dated 2020).
pIC50: −log10 of the molar value.

Each compound was assayed against T1, BTK enzyme (Homo sapiens, UniProt Q06187) (assay: In vitro BTK kinase assay: BTK-POLYGAT-LS assay). Details: ATP 10 μM, read-out: IC50 (10uMATP).
T1 construct: purchased Upstate 14-552
Format: biochemical
Description: The purpose of the BTK in vitro assay is to determine compound potency against BTK through the measurement of IC50. […] For a typical assay, a 24 μL aliquot of a ATP/peptide master mix (final concentration; ATP 10 μM, polyGAT 100 nM) in kinase buffer (10 mM Tris-HCl pH 7.5, 10 mM MgCl2, 200 μM Na3PO4, 5 mM DTT, 0.01% Triton X-100, and 0.2 mg/ml casein) is added to each well. […] The assay is incubated for 30 minutes before being stopped with 28 μL of a 50 mM EDTA solution. […] The plate is covered and incubated for 45 minutes at room temperature.

T1 sequence (Q06187 whole entry): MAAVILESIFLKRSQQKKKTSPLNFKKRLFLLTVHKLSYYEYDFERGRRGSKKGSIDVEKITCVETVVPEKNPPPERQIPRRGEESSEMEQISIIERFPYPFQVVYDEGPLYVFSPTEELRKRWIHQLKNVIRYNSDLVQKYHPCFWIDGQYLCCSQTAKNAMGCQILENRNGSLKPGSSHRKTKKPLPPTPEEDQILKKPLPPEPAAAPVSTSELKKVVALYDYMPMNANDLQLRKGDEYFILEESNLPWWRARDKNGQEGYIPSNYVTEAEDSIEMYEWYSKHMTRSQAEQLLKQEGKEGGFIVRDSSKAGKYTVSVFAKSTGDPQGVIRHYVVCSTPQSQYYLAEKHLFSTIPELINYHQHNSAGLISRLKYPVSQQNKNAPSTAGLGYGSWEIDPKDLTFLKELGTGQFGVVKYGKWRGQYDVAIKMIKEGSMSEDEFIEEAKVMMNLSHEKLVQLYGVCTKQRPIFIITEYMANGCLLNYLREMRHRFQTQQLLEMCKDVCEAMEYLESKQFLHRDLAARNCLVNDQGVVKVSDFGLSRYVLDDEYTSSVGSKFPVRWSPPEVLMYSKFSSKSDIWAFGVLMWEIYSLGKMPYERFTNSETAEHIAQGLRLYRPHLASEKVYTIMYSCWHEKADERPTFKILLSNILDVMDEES

Question: How did the pIC50 turn out when `Nc1nccc(-c2cnc(CNC(=O)c3cc4c(s3)CCCC4)c(F)c2)n1` [Example I-113, N-((5-(2-aminopyrimidin-4-yl)-3-fluoropyridin-2-yl)methyl)-4,5,6,7-tetrahydrobenzo[b]thiophene-2-carboxamide] was run?
Answer: 6.00 to 7.00

Question: `COC(C)c1ncc(C(=O)NCc2ccc(-c3ccnc(N)n3)cc2C)s1` (stereo not shown) [Example I-87, N-(4-(2-aminopyrimidin-4-yl)-2-methylbenzyl)-2-(1-methoxyethyl)thiazole-5-carboxamide] was tested. Which pIC50 did it give?
Answer: 6.00 to 7.00

Question: `Cc1cc(-c2ccnc(Nc3cnn(C)c3)n2)ccc1CNC(=O)C1CCN(C)CC1` [Example I-16, 1-methyl-N-(2-methyl-4-(2-((1-methyl-1H-pyrazol-4-yl)amino)pyrimidin-4-yl)benzyl)piperidine-4-carboxamide] was tested. Which pIC50 did it give?
Answer: < 5.00

Question: `Cc1cc(-c2cc(Nc3cc4n(n3)CCCN(C)C4)ncn2)ccc1CNC(=O)c1cnc(C(C)(C)C)s1` [Example I-147, 2-(tert-butyl)-N-(2-methyl-4-(6-((5-methyl-5,6,7,8-tetrahydro-4H-pyrazolo[1,5-a][1,4]diazepin-2-yl)amino)pyrimidin-4-yl)benzyl)thiazole-5-carboxamide] was tested. Which pIC50 did it give?
Answer: > 8.00

Question: With `Cc1cc(-c2ccnc(N)n2)ccc1CNC(=O)c1cc2c(s1)CCOC2` [Example I-139, N-(4-(2-aminopyrimidin-4-yl)-2-methylbenzyl)-6,7-dihydro-4H-thieno[3,2-c]pyran-2-carboxamide] as the compound, how does the pIC50 read?
Answer: 7.00 to 8.00

Question: With `Cc1cc(-c2ccnc(NCc3ccncc3)n2)ccc1CNC(=O)c1cnc(C(C)(C)C)s1` [Example I-32, 2-(tert-butyl)-N-(2-methyl-4-(2-((pyridin-4-ylmethyl)amino)pyrimidin-4-yl)benzyl)thiazole-5-carboxamide] as the compound, how does the pIC50 read?
Answer: 6.00 to 7.00

Question: `Cn1cc(Nc2cc(-c3ccc4c(c3)CCCC4NC(=O)c3cnc(C(C)(C)C)s3)ncn2)cn1` (stereo not shown) [Example I-92, 2-(tert-butyl)-N-(6-(6-((1-methyl-1H-pyrazol-4-yl)amino)pyrimidin-4-yl)-1,2,3,4-tetrahydronaphthalen-1-yl)thiazole-5-carboxamide] was tested. Which pIC50 did it give?
Answer: 7.00 to 8.00

Question: `Cn1cc(Nc2nccc(-c3ccc4c(c3)CCC4NC(=O)c3cnc(C(C)(C)C)s3)n2)cn1` (stereo not shown) [Example I-90, 2-(tert-butyl)-N-(5-(2-((1-methyl-1H-pyrazol-4-yl)amino)pyrimidin-4-yl)-2,3-dihydro-1H-inden-1-yl)thiazole-5-carboxamide] was tested. Which pIC50 did it give?
Answer: 7.00 to 8.00

Question: `Cc1cc(-c2ccnc(N)n2)ccc1CNC(=O)C1CC2CNCC2C1` (stereo not shown) [Example I-81, N-(4-(2-aminopyrimidin-4-yl)-2-methylbenzyl)octahydrocyclopenta[c]pyrrole-5-carboxamide] was tested. Which pIC50 did it give?
Answer: 5.00 to 6.00

Question: With `Cc1cc(-c2ccnc(Nc3cnn(C)c3)n2)ccc1CNC(=O)c1cnn(C(C)(C)C)c1` [Example I-154, 1-(tert-butyl)-N-(2-methyl-4-(2-((1-methyl-1H-pyrazol-4-yl)amino)pyrimidin-4-yl)benzyl)-1H-pyrazole-4-carboxamide] as the compound, how does the pIC50 read?
Answer: > 8.00

Question: How did the pIC50 turn out when `Cc1nc(-c2ccnc(Nc3cnn(C)c3)c2)ccc1CNC(=O)c1cnc(C(C)(C)C)s1` [Example I-102, 2-(tert-butyl)-N-((6-methyl-2′-((1-methyl-1H-pyrazol-4-yl)amino)-[2,4′-bipyridin]-5-yl)methyl)thiazole-5-carboxamide] was run?
Answer: 7.00 to 8.00

Question: With `Cc1cc(-c2ccnc(N)n2)ccc1CNC(=O)c1cnc(C2CC2)s1` [Example I-85, N-(4-(2-aminopyrimidin-4-yl)-2-methylbenzyl)-2-cyclopropylthiazole-5-carboxamide] as the compound, how does the pIC50 read?
Answer: 7.00 to 8.00

Question: `Cc1cc(-c2ccnc(N)n2)ccc1C(C)NC(=O)c1cnc(C(F)(F)F)s1` (stereo not shown) [Example I-107, N-(1-(4-(2-aminopyrimidin-4-yl)-2-methylphenyl)ethyl)-2-(trifluoromethyl)thiazole-5-carboxamide] was tested. Which pIC50 did it give?
Answer: 5.00 to 6.00

Question: With `CC(C)(C)c1ncc(C(=O)NC2CCCc3cc(-c4ccnc(N)n4)ccc32)s1` (stereo not shown) [Example I-136, N-(6-(2-aminopyrimidin-4-yl)-1,2,3,4-tetrahydronaphthalen-1-yl)-2-(tert-butyl)thiazole-5-carboxamide] as the compound, how does the pIC50 read?
Answer: 7.00 to 8.00

Question: How did the pIC50 turn out when `Cc1cc(-c2ccnc(NC(C)c3ccncc3)n2)ccc1CNC(=O)c1cnc(C(C)(C)C)s1` (stereo not shown) [Example I-29, 2-(tert-butyl)-N-(2-methyl-4-(2-((1-(pyridin-4-yl)ethyl)amino)pyrimidin-4-yl)benzyl)thiazole-5-carboxamide] was run?
Answer: 5.00 to 6.00

Question: `Cc1cc(-c2ccnc(N)n2)ccc1CNC(=O)c1cnc(C(C)C)s1` [Example I-86, N-(4-(2-aminopyrimidin-4-yl)-2-methylbenzyl)-2-isopropylthiazole-5-carboxamide] was tested. Which pIC50 did it give?
Answer: 7.00 to 8.00

Question: How did the pIC50 turn out when `Cc1cc(-c2ccnc(N)n2)ccc1CNC(=O)c1cnc(C2CCCO2)s1` (stereo not shown) [Example I-88, N-(4-(2-aminopyrimidin-4-yl)-2-methylbenzyl)-2-(tetrahydrofuran-2-yl)thiazole-5-carboxamide] was run?
Answer: 6.00 to 7.00

Question: How did the pIC50 turn out when `Cc1cc(-c2ccnc(Nc3ccc(N(C)C)cn3)n2)ccc1CNC(=O)c1cnc(C(C)(C)C)s1` [Example I-61, 2-(tert-butyl)-N-(4-(2-((5-(dimethylamino)pyridin-2-yl)amino)pyrimidin-4-yl)-2-methylbenzyl)thiazole-5-carboxamide] was run?
Answer: 7.00 to 8.00

Question: With `Cc1cc(-c2ccnc(N)n2)ccc1CNC(=O)c1ccc2c(c1)CCNC2` [Example I-77, N-(4-(2-aminopyrimidin-4-yl)-2-methylbenzyl)-1,2,3,4-tetrahydroisoquinoline-6-carboxamide] as the compound, how does the pIC50 read?
Answer: 5.00 to 6.00

Question: How did the pIC50 turn out when `CN(Cc1cc(-c2ccnc(N)n2)ccc1CNC(=O)c1cc2c(s1)CCCC2)C(=O)OC(C)(C)C` [Example I-144, tert-butyl 5-(2-aminopyrimidin-4-yl)-2-((4,5,6,7-tetrahydrobenzo[b]thiophene-2-carboxamido)methyl)benzyl(methyl)carbamate] was run?
Answer: 7.00 to 8.00

Question: With `Cc1cc(-c2ccnc(N[C@H](C)C3CCCCC3)n2)ccc1CNC(=O)c1cnc(C(C)(C)C)s1` [Example I-27, (R)-2-(tert-butyl)-N-(4-(2-((1-cyclohexylethyl)amino)pyrimidin-4-yl)-2-methylbenzyl)thiazole-5-carboxamide] as the compound, how does the pIC50 read?
Answer: < 5.00

Question: `Cc1cc(-c2ccnc(N)n2)ccc1CNC(=O)c1cc2c(s1)CCNC2` [Example I-140, N-(4-(2-aminopyrimidin-4-yl)-2-methylbenzyl)-4,5,6,7-tetrahydrothieno[3,2-c]pyridine-2-carboxamide] was tested. Which pIC50 did it give?
Answer: 7.00 to 8.00

Question: How did the pIC50 turn out when `CNc1nccc(-c2ccc(CNC(=O)c3cnc(C(C)(C)C)s3)c(C)c2)n1` [Example I-33, 2-(tert-butyl)-N-(2-methyl-4-(2-(methylamino)pyrimidin-4-yl)benzyl)thiazole-5-carboxamide] was run?
Answer: 6.00 to 7.00

Question: With `Cc1cc(-c2ccnc(NC3CCN(C)CC3)n2)ccc1CNC(=O)c1cnc(C(C)(C)C)s1` [Example I-25, 2-(tert-butyl)-N-(2-methyl-4-(2-((1-methylpiperidin-4-yl)amino)pyrimidin-4-yl)benzyl)thiazole-5-carboxamide] as the compound, how does the pIC50 read?
Answer: 5.00 to 6.00

Question: How did the pIC50 turn out when `Cc1cc(-c2ccnc(Nc3cnn(C[C@@H](N)CO)c3)n2)ccc1CNC(=O)c1cnc(C(C)(C)C)s1` [Example I-133, (R)—N-(4-(2-((1-(2-amino-3-hydroxypropyl)-1H-pyrazol-4-yl)amino)pyrimidin-4-yl)-2-methylbenzyl)-2-(tert-butyl)thiazole-5-carboxamide] was run?
Answer: > 8.00
